From ChEMBL document CHEMBL5030564, “Multifunctional Antibiotic-Host Defense Peptide Conjugate Kills Bacteria, Eradicates Biofilms, and Modulates the Innate Immune Response” (J Med Chem, 2021) come the findings set out here.

Series [1] deals with Staphylococcus aureus. The series is described as follows: Antimicrobial activity against methicillin-resistant Staphylococcus aureus USA300 LAC assessed as inhibition of bacterial growth incubated for 18 to 20 hrs by broth microdilution assay. The format is functional. The following applies: MRSA USA300 LAC, time 18-20 hrs. (Broth dilution looks for growth in wells or tubes with falling amounts of substance.)

Series [2] has as its system Staphylococcus aureus. The series is described as follows: Antimicrobial activity against methicillin-resistant Staphylococcus aureus SAP 0017 assessed as inhibition of bacterial growth incubated for 18 to 20 hrs by broth microdilution assay. In kind it is functional. The following applies: time 18-20 hrs.
The test system of series [3] is Staphylococcus epidermidis. In words: Antimicrobial activity against Staphylococcus epidermidis ATCC14990 assessed as inhibition of bacterial growth incubated for 18 to 20 hrs by broth microdilution assay. The format is functional. The following applies: time 18-20 hrs.
In series [4] the test system is Enterococcus faecium. The series is described as follows: Antimicrobial activity against Enterococcus faecium assessed as inhibition of bacterial growth incubated for 18 to 20 hrs by broth microdilution assay. The format is functional. Conditions: time 18-20 hrs.
Series [5] has as its system Staphylococcus aureus. The series is described as follows: Antibiofilm activity against methicillin-resistant Staphylococcus aureus USA300 LAC assessed as inhibition of CV-staining/biomass formation measured after overnight incubation by biofilm inhibition assay. The format is functional, MRSA USA300 LAC.
Series [6] concerns Staphylococcus aureus. In words: Antibiofilm activity against methicillin-resistant Staphylococcus aureus SAP 0017 assessed as inhibition of CV-staining/biomass formation measured after overnight incubation by biofilm inhibition assay. The format is functional.
For series [7], the system named is Staphylococcus epidermidis. In words: Antibiofilm activity against Staphylococcus epidermidis ATCC14990 assessed as inhibition of CV-staining/biomass formation measured after overnight incubation by biofilm inhibition assay. The format is functional.
Series [8] deals with Enterococcus faecium. In words: Antibiofilm activity against Enterococcus faecium assessed as inhibition of CV-staining/biomass formation measured after overnight incubation by biofilm inhibition assay. The format is functional.
Series [9] relates to Staphylococcus aureus. The series is described as follows: Antibiofilm activity against methicillin-resistant Staphylococcus aureus USA300 LAC assessed as minimal biofilm eradication concentration required for complete inhibition of bacterial growth by Calgary biofilm device assay. In kind it is functional, MRSA USA300 LAC.
For series [10], the system named is Staphylococcus epidermidis. In words: Antibiofilm activity against Staphylococcus epidermidis ATCC14990 assessed as biofilm eradication concentration by Calgary biofilm device assay. The format is functional.
Series [11] relates to Enterococcus faecium. The series is described as follows: Antibiofilm activity against Enterococcus faecium assessed as biofilm eradication concentration by Calgary biofilm device assay. The format is functional.
The subject of series [12] is Staphylococcus aureus. The series is described as follows: Antibiofilm activity against methicillin-resistant Staphylococcus aureus SAP 0017 assessed as biofilm eradication concentration by Calgary biofilm device assay. The format is functional.
Series [13] has as its system Staphylococcus aureus. The series is described as follows: Antibiofilm activity against methicillin-resistant Staphylococcus aureus USA300 LAC assessed as disruption of mature biofilms by TCC bacterial metabolic assay. The format is functional, MRSA USA300 LAC.
Series [14] deals with Staphylococcus aureus. The series is described as follows: Antibiofilm activity against methicillin-resistant Staphylococcus aureus SAP 0017 assessed as disruption of mature biofilms by TCC bacterial metabolic assay. In kind it is functional.
The test system of series [15] is Staphylococcus epidermidis. The series is described as follows: Antibiofilm activity against Staphylococcus epidermidis ATCC14990 assessed as disruption of mature biofilms by TCC bacterial metabolic assay. The format is functional.
Series [16] relates to Enterococcus faecium. In words: Antibiofilm activity against Enterococcus faecium assessed as reduction in viable biofilm cell counts by TCC bacterial metabolic assay. In kind it is functional, organism-based.
In series [17] the test system is Staphylococcus aureus. In words: Antibiofilm activity against methicillin-resistant Staphylococcus aureus USA300 LAC assessed as rough surfaces sprinkled with debris at 16 ug/ml by scanning electron microscopy based assay. In kind it is functional, organism-based. Conditions: MRSA USA300 LAC, dose 16.0 µg/ml.
Series [18] deals with Staphylococcus aureus. In words: Antibiofilm activity against methicillin-resistant Staphylococcus aureus USA300 LAC assessed as killing biofilm cells at 16 ug/ml incubated for 4 hrs after SYTO9/PI staining by confocal microscopy. In kind it is functional, MRSA USA300 LAC. The following applies: dose 16 µg/ml.
Series [19] relates to Staphylococcus aureus. In words: Antibacterial activity against methicillin resistant Staphylococcus aureus USA300 LAC assessed as change in susceptibility at sub-MIC treated over 14 serial passages by resistance development assay. The format is functional, organism-based. Conditions: MRSA USA300 LAC.
The test system of series [20] is Staphylococcus aureus. The series is described as follows: Antibacterial activity against methicillin-resistant Staphylococcus aureus USA300 LAC assessed as measuring killing rate at 16 ug/ml measured with in 30 mins by time kill assay. In kind it is functional, organism-based. Conditions: MRSA USA300 LAC, dose 16.0 µg/ml.
A short description of series [21]: Cytotoxicity against PBMC (unknown origin) at 100 ug incubated for 24 hrs by lactate dehydrogenase assay. In kind it is tissue-based. Conditions: dose 100 µg.
The test system of series [22] is PBMC. The series is described as follows: Immunomodulatory activity in PBMC (unknown origin) assessed as increase in MCP-1 production level at 12.5 ug/ml incubated for 24 hrs by ELISA. In kind it is functional, tissue-based. The following applies: dose 12.5 µg/ml.
Series [23] can be described thus: (§1) Immunomodulatory activity in PBMC (unknown origin) assessed as reduction in LPS-induced IL-1beta level by ELISA. The format is functional. Also noted: scale not given: the % may be the effect or the level left. (In general: An ELISA detects its analyte on a solid surface through an enzyme-linked reagent.)
The nature of series [24]: Immunomodulatory activity in PBMC (unknown origin) assessed as reduction in LPS-induced IL-10 level by ELISA. In kind it is functional. On the set-up: scale not given: the % may be the effect or the level left.
The subject of series [25] is Staphylococcus aureus. The series is described as follows: Antibiofilm activity against methicillin resistant Staphylococcus aureus-lux biofilm in N/TERT-based epidermal model assessed as reduction in luminescence treated at 300 ug/ml topically incubated for 4 hrs by ChemiDoc imaging system. In kind it is functional, organism-based. The following applies: dose 300.0 µg/ml.

Series [26] deals with Staphylococcus aureus. The series is described as follows: Antibiofilm activity against methicillin resistant Staphylococcus aureus in N/TERT-based epidermal model assessed as reduction in bacterial clusters by H&E staining based histological analysis. The format is functional, organism-based.
For series [27], the system named is Staphylococcus aureus. In words: Antimicrobial activity against methicillin resistant Staphylococcus aureus in N/TERT-based epidermal model assessed as reduction in bacterial count in epidermis. In kind it is functional, organism-based.
The nature of series [28]: Toxicity in methicillin resistant Staphylococcus aureus USA300 infected CD-1 mouse assessed as reduction in bacterial load at 2.5 mg/kg, ILES after 3 days. The format is organism-based. Conditions: in vivo, other, 72 h, time 3 day.
The nature of series [29]: Toxicity in Staphylococcus epidermidis infected CD-1 mouse assessed as reduction in abscess size at 2.5 mg/kg, ILES after 3 days. Conditions: in vivo, other, 72 h, time 3 day. The format is organism-based. On the set-up: scale not given: the % may be the effect or the level left.
The nature of series [30]: Toxicity in Staphylococcus epidermidis infected CD-1 mouse assessed as reduction in bacterial load at 2.5 mg/kg, ILES after 3 days. The format is organism-based. The following applies: in vivo, other, 72 h, time 3 day.
The test system of series [31] is PBMC. Described as §1. The format is functional.
Series [32] in a line: Toxicity in methicillin resistant Staphylococcus aureus USA300 infected CD-1 mouse assessed as reduction in bacterial load at 0.25 mg/kg, ILES after 3 days. The following applies: in vivo, other, 72 h, time 3 day. The format is organism-based.
Series [33] in a line: Toxicity in Staphylococcus epidermidis infected CD-1 mouse assessed as reduction in bacterial load at 0.25 mg/kg, ILES after 3 days. In kind it is organism-based. Conditions: in vivo, other, 72 h, time 3 day.

Values after ≈ are worked out from the molar mass of the structure shown. Active and inactive are the calls of the source. Residues, ends and D or L forms follow the SMILES beside them.

`CCCCCCCCCCCCCCCC[N+](C)(C)Cc1ccccc1.[Cl-]` [CETALKONIUM CHLORIDE]: the MIC (commonly the smallest concentration in the dilution series that meets the test's criterion for growth inhibition) in series [1] is 2 µg/mL; in series [2] it was 2 µg/mL; in [3] it was 4 µg/mL; in series [4] it was greater than 64 µg/mL. The MBIC in [5] was 4 µg/mL; in [6], 4 µg/mL; in [7], 4 µg/mL; in series [8], greater than 64 µg/mL. Further, the results for the MBEC in series [9], in series [10] and in series [11] were 8 µg/mL, 16 µg/mL and greater than 128 µg/mL, respectively.
On to `CC[C@H](C)[C@H](NC(=O)[C@H](CCCNC(=N)N)NC(=O)[C@@H](NC(=O)[C@H](C)NC(=O)[C@@H](NC(=O)[C@@H](NC(=O)[C@H](CC(C)C)NC(=O)[C@H](CCCNC(=N)N)NC(=O)[C@@H](NC(=O)[C@H]1NC(=O)[C@H]2NC(=O)[C@H](NC(=O)[C@@H]3NC(=O)[C@H](CC(N)=O)NC(=O)[C@H](NC(=O)[C@@H](CC(C)C)NC)[C@H](O)c4ccc(c(Cl)c4)Oc4cc3cc(c4O[C@@H]3O[C@H](CO)[C@@H](O)[C@H](O)[C@H]3O[C@H]3C[C@](C)(N)[C@H](O)[C@H](C)O3)Oc3ccc(cc3Cl)[C@H]2O)c2ccc(O)c(c2)-c2c(O)cc(O)cc21)C(C)C)[C@@H](C)CC)C(C)C)C(C)C)C(=O)N[C@@H](Cc1c[nH]c2ccccc12)C(=O)N[C@@H](CCCNC(=N)N)C(=O)N[C@@H](CCCNC(=N)N)C(N)=O`, for which the MIC was 4 µg/mL (≈ 1.35 µM) in series [1], 4 µg/mL (≈ 1.35 µM) in series [2], 4 µg/mL (≈ 1.35 µM) in series [3] and 32 µg/mL (≈ 10.8 µM) in series [4]. Further, the MBIC was found to be 4 µg/mL in series [5], 4 µg/mL in series [6], 8 µg/mL in series [7] and 32 µg/mL in [8]. The MBEC amounted to 8 µg/mL in series [9], 8 µg/mL in series [12], 8 µg/mL in series [10] and 64 µg/mL in [11]. Besides, the Activity is listed as 80% in series [13]; 80% in [14]; 80% in [15]; greater than 90% in series [18]; “Non-Toxic” in series [21]; 40% in [23]. Also, the Activity in [24] is recorded as 40%; in series [28] it was “Non-Toxic”; in series [29], 90%; in series [30], “Non-Toxic”. The outcome in series [16] and in series [19] was inactive. The result in series [17], in [20], in series [22], in series [25], in series [26] and in [27] was Active.
Consider `CN[C@H](CC(C)C)C(=O)N[C@H]1C(=O)N[C@@H](CC(N)=O)C(=O)N[C@H]2C(=O)N[C@H]3C(=O)N[C@H](C(=O)N[C@H](C(=O)O)c4cc(O)cc(O)c4-c4cc3ccc4O)[C@H](O)c3ccc(c(Cl)c3)Oc3cc2cc(c3O[C@@H]2O[C@H](CO)[C@@H](O)[C@H](O)[C@H]2O[C@H]2C[C@](C)(N)[C@H](O)[C@H](C)O2)Oc2ccc(cc2Cl)[C@H]1O` [VANCOMYCIN], for which the MIC in series [4] was greater than 128 µg/mL. Besides, the MBIC in series [5] is 2 µg/mL; in [6], 2 µg/mL; in [7], 2 µg/mL; in series [8] it was greater than 128 µg/mL. Moreover, the MBEC in series [9], in [12], in series [10] and in series [11] was greater than 128 µg/mL each time. Besides, the Activity in series [18] is on record as less than 25%; in [24] it was 5%; in [32], “Non-Toxic”; in [33] it was “Non-Toxic”. The result in [31] and in series [26] was inactive. Also, the result in series [25] was Active.
With `CC[C@H](C)[C@H](NC(=O)[C@H](CCCNC(=N)N)NC(=O)[C@@H](NC(=O)[C@H](C)NC(=O)[C@@H](NC(=O)[C@@H](NC(=O)[C@H](CC(C)C)NC(=O)[C@H](CCCNC(=N)N)NC(=O)[C@@H](N)C(C)C)[C@@H](C)CC)C(C)C)C(C)C)C(=O)N[C@@H](Cc1c[nH]c2ccccc12)C(=O)N[C@@H](CCCNC(=N)N)C(=O)N[C@@H](CCCNC(=N)N)C(N)=O` (H-VRLIVAVRIWRR-NH2), the MIC in series [1] was 16 µg/mL (≈ 10.4 µM); in series [2], 16 µg/mL (≈ 10.4 µM); in [3] it was 16 µg/mL (≈ 10.4 µM); in series [4], greater than 64 µg/mL. For the same compound, the figures for the MBIC in series [7] and in [8] were 16 µg/mL and greater than 64 µg/mL, respectively. For the same compound, the values for the MBEC in series [10] and in [11] were 16 µg/mL and greater than 128 µg/mL, respectively. The Activity in [18] was greater than 75%; in series [23], 40%. In series [25], the result was Active. For the same compound, the outcome in series [26] was inactive. Also, in series [30], the “fold change (FC)” value is on record as greater than 1000.
